Measured values as given in ChEMBL document CHEMBL1201862, “PubChem BioAssay data set” (2004).
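96-well plates; 48 h exposure; 5 concentrations. Endpoints by linear interpolation between flanking doses. Not reached: highest tested concentration assigned. The concentration for 50% growth inhibition is given as GI50.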 Calls of active or inactive are those of the source. Rule as the data show it: active = GI50 up to about 1.1 µM and inactive = higher.

Key:
Assay in all cases: growth of human tumour cells (NCI), 48 h
HCT-15 = tested on: HCT-15
MOLT-4 = tested on: MOLT-4
HL-60 = tested on: HL-60
NCI-H226 = tested on: NCI-H226
HCT-116 = tested on: HCT-116
M14 = tested on: M14
HOP-92 = tested on: HOP-92
OVCAR-5 = tested on: OVCAR-5
OVCAR-3 = tested on: OVCAR-3
NCI/ADR-RES = tested on: NCI/ADR-RES
LOX IMVI = tested on: LOX IMVI
UACC-62 = tested on: UACC-62
SNB-19 = tested on: SNB-19
Malme-3M = tested on: Malme-3M
A549 = tested on: A549
SF-295 = tested on: SF-295
UO-31 = tested on: UO-31
SNB-75 = tested on: SNB-75
SK-OV-3 = tested on: SK-OV-3
CCRF-CEM = tested on: CCRF-CEM

| Compound | GI50 (HCT-15) | GI50 (MOLT-4) | GI50 (HL-60) | GI50 (NCI-H226) | GI50 (HCT-116) | GI50 (M14) | GI50 (HOP-92) | GI50 (OVCAR-5) | GI50 (OVCAR-3) | GI50 (NCI/ADR-RES) | GI50 (LOX IMVI) | GI50 (UACC-62) | GI50 (SNB-19) | GI50 (Malme-3M) | GI50 (A549) | GI50 (SF-295) | GI50 (UO-31) | GI50 (SNB-75) | GI50 (SK-OV-3) | GI50 (CCRF-CEM) |
| --- | --- | --- | --- | --- | --- | --- | --- | --- | --- | --- | --- | --- | --- | --- | --- | --- | --- | --- | --- | --- |
| CCN(CC)c1nc(N(C)C)c2cc(OC)ccc2n1 | 30.6 µM | 18.5 µM (inactive) | 16.6 µM (inactive) | 21.9 µM (inactive) | 11.2 µM (inactive) | 22.7 µM (inactive) | 24.2 µM (inactive) | 62.5 µM (inactive) | 35.6 µM (inactive) | 24.1 µM (inactive) | 26.8 µM (inactive) | 25.8 µM (inactive) | 48.6 µM (inactive) | 20.3 µM (inactive) | 27.9 µM (inactive) | 26.7 µM (inactive) | 19.3 µM (inactive) | – | – | – |
| Cc1ccc(/C=C2\Sc3scc(-c4ccccc4)[n+]3C2=O)cc1 | 19.8 µM | 30.1 µM (inactive) | 2.69 µM (inactive) | 37.3 µM (inactive) | 21.2 µM (inactive) | 23.8 µM (inactive) | 15.4 µM (inactive) | 33.4 µM (inactive) | 31.4 µM (inactive) | 19.5 µM (inactive) | 20.6 µM (inactive) | 16.7 µM (inactive) | 24.5 µM (inactive) | – | 25.1 µM (inactive) | 24.6 µM (inactive) | 14.5 µM (inactive) | 10.8 µM (inactive) | 44.2 µM (inactive) | 13.6 µM (inactive) |
| COc1cc(-c2cn(S(=O)(=O)c3ccc(C)cc3)c3ccccc23)nc(-c2cn(S(=O)(=O)c3ccc(C)cc3)c3ccccc23)n1 | 0.592 µM | 0.69 µM (active) | 2.19 µM (inactive) | 0.935 µM (active) | 0.385 µM (active) | 0.478 µM (active) | 4.98 µM (inactive) | 1.13 µM (inactive) | 0.586 µM (active) | 0.746 µM (active) | 0.6 µM (active) | 0.632 µM (active) | 0.54 µM (active) | – | 0.473 µM (active) | 0.432 µM (active) | 0.968 µM (active) | 4.42 µM (inactive) | 2.25 µM (inactive) | 12.2 µM (inactive) |
| COC(=O)c1cc(C)ccc1C1CN=NC12Cc1cccc(C)c1C2=O (centres undefined) | 27.6 µM | 18.7 µM (inactive) | 12.7 µM (inactive) | 33.1 µM (inactive) | 23.8 µM (inactive) | 16.7 µM (inactive) | 30.5 µM (inactive) | 17.9 µM (inactive) | 36.1 µM (inactive) | 25.5 µM (inactive) | 16.6 µM (inactive) | – | 55.1 µM (inactive) | 24.2 µM (inactive) | 31.7 µM (inactive) | 36.1 µM (inactive) | 38.9 µM (inactive) | 77.3 µM (inactive) | – | 29.3 µM (inactive) |
| NCC1OC(n2cnc3c(=O)[nH]c(N)nc32)C(O)C1O (centres undefined) | > 100 µM | > 100 µM (inactive) | > 100 µM (inactive) | > 100 µM (inactive) | > 100 µM (inactive) | > 100 µM (inactive) | > 100 µM (inactive) | > 100 µM (inactive) | > 53.3 µM (inactive) | > 100 µM (inactive) | 69.8 µM (inactive) | > 100 µM (inactive) | > 100 µM (inactive) | > 100 µM (inactive) | > 100 µM (inactive) | > 100 µM (inactive) | > 100 µM (inactive) | – | > 100 µM (inactive) | > 82.8 µM (inactive) |
| COc1ccc(-c2nc(-c3ccc(OC)cc3)n(-c3ccccc3)n2)cc1 | > 100 µM | 16.1 µM (inactive) | 30.5 µM (inactive) | > 100 µM (inactive) | > 100 µM (inactive) | 68.7 µM (inactive) | 52 µM (inactive) | > 100 µM (inactive) | 46.8 µM (inactive) | > 100 µM (inactive) | 41.1 µM (inactive) | 86.5 µM (inactive) | 57.8 µM (inactive) | – | 56.6 µM (inactive) | > 100 µM (inactive) | 21.6 µM (inactive) | > 100 µM (inactive) | > 100 µM (inactive) | > 100 µM (inactive) |
| N=C(c1cccs1)C1(N2CCCCC2)CCCCC1 | 14.8 µM | 15.7 µM (inactive) | 13.2 µM (inactive) | – | 42.2 µM (inactive) | 20.3 µM (inactive) | 20.8 µM (inactive) | 19.4 µM (inactive) | 15.3 µM (inactive) | 25.4 µM (inactive) | 28.2 µM (inactive) | 14.9 µM (inactive) | 17.5 µM (inactive) | 14.6 µM (inactive) | 27.7 µM (inactive) | 18.2 µM (inactive) | 16.1 µM (inactive) | – | 19.6 µM (inactive) | 17.7 µM (inactive) |
